# Data taken from patent publication US20260063641A1, “COMPOSITIONS AND METHODS FOR LABELING AND DETECTING BINDING PARTNERS” (UNIVERSITY OF UTAH RESEARCH FOUNDATION, priority 2022, published 2026).
# What was measured:
# [1] = biological target: T1, NLuc-FKBP12F36V (Homo sapiens, UniProt P62942, F37V); experiment: FKBP12F36V cellular target engagement assay (competition with dTAG-13, NLuc/FLuc signal); format: cell-based; details: mean±S.D. of n=3 technical replicates, FIG. 4D-F
# T1 construct: expressed in transfected cells
# From the text: This method, named the biotin targeting chimera (BioTAC) system, uses bifunctional molecules composed of a compound-of-interest linked to selective FKBP12F36V recruiter orthoAP1867, to recruit a ligandable proximity labeling enzyme (mTurbo-FKBP12F36V) to compound-bound complexes enabling their biotinylation and subsequent affinity purification (FIG. TA-B). To benchmark the BioTAC system for accurate detection of the direct targets of ligands the well-characterized BET protein inhibitor (+)-JQ1, which potently binds BRD2, BRD3 and BRD4 (as well as the testes-specific BET protein BRDT), was selected as a test case. A series of bifunctional molecules consisting of (+)-JQ1 conjugated to […] were synthesized via a variable linker (FIG. 1B, FIG. 4A-C). (+)-JQ1-bifunctional molecule cell permeability was measured using an FKBP12F36V cellular target engagement assay adapted from Nabet et. al Nat Commun 11, 4687 (2020). Briefly, FKBP12F36V binding molecules compete with an FKBP12F36V targeting PROTAC (dTAG-13), for NLuc-FKBP12F36V occupancy, rescuing degradation and resulting in an increase in NLuc/FLuc (control) signal relative to DMSO-treated cells. All synthesized compounds were comparably cell permeable (FIG. 4D-E).
# [2] = biological target: T2, BRD4 (Homo sapiens, UniProt O60885); experiment: BioTAC proximity labeling, streptavidin pulldown and western blot for BRD4; format: cell-based; details: HEK293 transiently transfected with miniTurbo-FKBP12F36V, 100 μM biotin, 30 min time point
# T2 construct: host or cells: HEK293 transiently transfected with the BioTAC plasmid
# Description: Next bifunctional molecule guided-proximity labeling experiments were performed using validated reagents. HEK293 cells transiently transfected with mTurbo-FKBP12F36V were treated with 100 μM biotin, 1 μM bifunctional (+)-JQ1 recruiters, and variable concentrations of free (+)-JQ1 to off-compete the bifunctional molecule and rescue biotinylation. Biotinylated proteins were isolated from cell lysates via streptavidin bead pulldown and analyzed by western blot for BRD4, a primary target of (+)-JQ1.
# 0.6 million HEK293 cells were plated into wells containing 1 mL of complete media (DMEM, 10% FBS, 1% pen/strep) and incubated overnight. Cells were transiently transfected with 100 μL of OptiMEM media containing 1 μg of BioTAC plasmid and 3 μL of TransIT-2020 transfection reagent (Mirus, MIR5400) for 24 hr. Following a media change, cells were pre-treated with parental molecules or DMSO for 10 min, then treated with bifunctional compound for 10 min, and finally labeled in 100 μM biotin for the indicated time. Cells were washed twice with DPBS then harvested into 1.5 mL tubes. […] Protein concentration was determined by BCA assay (Thermo, 23225), then 100 ug protein was rotated overnight at 4° C. with 8 μL of streptavidin magnetic beads (Thermo, 88817) that had been prewashed twice in RIPA lysis buffer. […]
# T1 sequence (P62942 2-108 F37V limits assumed): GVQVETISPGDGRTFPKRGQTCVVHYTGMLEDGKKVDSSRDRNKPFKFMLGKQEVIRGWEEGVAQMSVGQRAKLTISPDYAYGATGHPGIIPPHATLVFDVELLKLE
structure (smiles),measurement,setting,value
"CC[C@H](C(=O)N1CCCC[C@H]1C(=O)O[C@H](CCc1ccc(OC)c(OC)c1)c1ccccc1OCC(=O)NCCOCCOCCOCCNC(=O)C[C@@H]1N=C(c2ccc(Cl)cc2)c2c(sc(C)c2C)-n2c(C)nnc21)c1cc(OC)c(OC)c(OC)c1 [Cpd1, (R)-1-(2-((17-((S)-4-(4-Chlorophenyl)-2,3,9-trimethyl-6H-thieno[3,2-f][1,2,4]triazolo[4,3-a][1,4]diazepin-6-yl)-2,16-dioxo-6,9,12-trioxa-3,15-diazaheptadecyl)oxy)phenyl)-3-(3,4-dimethoxyphenyl)propyl (S)-1-((S)-2-(3,4,5-trimethoxyphenyl)butanoyl)piperidine-2-carboxylate]",competitive displacement of dTAG-13 (FKBP12F36V cellular target engagement),[1],competitive displacement of dTAG-13
same,BRD4 labeling and rescue (immunoblot of streptavidin pulldown),[2],high BRD4-labeling and rescue
